A short description of the experiment: Action of antioxidation, OXY Adsorbent Test (FREE). Conditions: solution at 10 mg/ml in ultrapure water. The procedure: The banana-derived composition 4 (the secondary refined product) as the biologically active substance and vitamin C were dissolved in ultrapure water to prepare solutions each at a concentration of 10 mg/ml. An antioxidation ability was measured twice for each of the prepared solutions. In detail, the antioxidation ability against oxidation through hypochlorous acid (HClO) was measured by means of Free Radical Elective Evaluator (FREE) manufactured by […] Co., Ltd. Oxygen (OXY) Adsorbent Test was applied to the measurement. As a result of the measurement, a concentration of HClO neutralized is obtained in the unit of μmol HClO/mL. A higher concentration value means a better HClO neutralization ability, that is to say, a stronger antioxidative action.

As to `O=C1O[C@H]([C@@H](O)CO)C(O)=C1O` [Vitamin C, vitamin C], the “concentration of HClO neutralized, 1st measurement” value worked out at 71.7 μmol HClO/mL and the “concentration of HClO neutralized, 2nd measurement” value is 79.7 μmol HClO/mL. For the setting “average of two measurements”, the “concentration of HClO neutralized, Average” value is 75.7 μmol HClO/mL.

These data come from patent publication US20150164968A1, “Method of Producing Banana-Derived Composition and Biologically Active Substance Containing Same” (priority 2013, published 2015).
